≈ marks a conversion by molar mass, not a printed value. Like-named read-outs stand apart in the source and are kept apart here. One block for each molecule: values may come before it.
What was measured:
[1] = In vivo PK experiments in beagle dogs, oral gavage
Description: The samples were detected by LC-MS/MS, and AUC, Cmax, and Tmax parameters were calculated by employing WinNonlin version 6.4.

[2] = Solubility test in water and biological vehicles (FaSSIF, FeSSIF); format: physicochemical; conditions: for solubility at 24 h: thermodynamic from solid, 37° C., HPLC, crystal form A calculated based on the free acid
[3] = background art; cited from earlier work
[4] = dog, blood, beagle dogs, P.O. 300 mg/kg, single oral gavage

- AUC(0-t) [1, 4]: 613 µM·h
- Cmax [1, 4]: 43.5 µM
- Tmax [1, 4]: 6 h
- MRT last ([1]; dog, blood, beagle dogs, P.O. 300 mg/kg, single oral gavage, read-out: MRT0-last): 10.6 h
- solubility at 24 h ([2]; FaSSIF (simulated pre-meal intestinal fluid), read-out: Solubility in FaSSIF): 117 µg/mL (≈ 244 µM)
- solubility at 24 h ([2]; FeSSIF (simulated post-meal intestinal fluid), read-out: Solubility in FeSSIF): 440 µg/mL (≈ 916 µM)
- solubility at 24 h ([2]; purified water, read-out: Solubility in H2O): 8 µg/mL (≈ 16.7 µM)
SMILES: CC/C(=C(/c1ccc(/C=C/C(=O)O)cc1)c1[nH]c2ccccc2c1Cl)c1ccc(F)cc1Cl [compound I-8]

- Amount of exposure in the organism compared with compound 1-8 ([1]; in vivo pharmacokinetic studies, versus compound 1-8): significantly increased
- Solubility in biological media compared with compound 1-8 ([2]; biological media, versus compound 1-8): significantly improved
- Solubility in water compared with free acid compound 1-8 ([2]; water, versus compound 1-8): nearly hundredfold improved
SMILES: CC/C(=C(/c1ccc(/C=C/C(=O)O)cc1)c1[nH]c2ccccc2c1Cl)c1ccc(F)cc1Cl [compound of formula (I)]

SMILES: C[C@]12CC[C@@H]3c4ccc(O)cc4C[C@@H](CCCCCCCCC[S+]([O-])CCCC(F)(F)C(F)(F)F)[C@H]3[C@@H]1CC[C@@H]2O (some centres unmarked) [fulvestrant]
- Oral bioavailability [3]: zero oral bioavailability

Reference: patent US12098127B2, “Salt form of estrogen receptor downregulator, crystalline form thereof, and preparation method therefor” (LUOXIN PHARMACEUTICAL (SHANGHAI) CO., LTD., priority 2018, dated 2024)
